# pIC50: −log10 of the molar value.
# How the values were obtained:
# [1] = test system: PI3-K in BT20 cells (phosphorylation of AKT at serine 473); experiment: PI3-Kα Cellular Assay (AKT Ser473 phosphorylation ELISA in BT20 cells); assay type: cell-based, human; details: Homo sapiens, BT-20, pAKT Ser473 ELISA, 1 hour incubation
# Summary of the method: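 Cells seeded overnight in 0.5% FBS, then exposed 1 h at 37 °C to an 11-concentration 1:3 dilution series, in duplicate.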
# PI3-Kα = PI3-Kα (Mus musculus (Mouse), UniProt P42337); experiment: PI3-Kα Biochemical Assay (fluorescence polarization kinase assay)
# Summary of the method: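 Co-expressed mouse p110/p85 PI3-Kα (4 nM stock) acting on PI(4,5)P2 (60 μM stock) with ATP/MgCl2 in HEPES pH 7.4 buffer, 35 min at room temperature, then EDTA stop. PI(3,4,5)P3 product detected by displacement of TAMRA-PIP3 from Grip1 PH domain (FP, 535/580 nm). IC50 from sigmoidal fit of % inhibition.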
# Sequence of PI3-Kα (P42337 whole entry, the tested form may be a part): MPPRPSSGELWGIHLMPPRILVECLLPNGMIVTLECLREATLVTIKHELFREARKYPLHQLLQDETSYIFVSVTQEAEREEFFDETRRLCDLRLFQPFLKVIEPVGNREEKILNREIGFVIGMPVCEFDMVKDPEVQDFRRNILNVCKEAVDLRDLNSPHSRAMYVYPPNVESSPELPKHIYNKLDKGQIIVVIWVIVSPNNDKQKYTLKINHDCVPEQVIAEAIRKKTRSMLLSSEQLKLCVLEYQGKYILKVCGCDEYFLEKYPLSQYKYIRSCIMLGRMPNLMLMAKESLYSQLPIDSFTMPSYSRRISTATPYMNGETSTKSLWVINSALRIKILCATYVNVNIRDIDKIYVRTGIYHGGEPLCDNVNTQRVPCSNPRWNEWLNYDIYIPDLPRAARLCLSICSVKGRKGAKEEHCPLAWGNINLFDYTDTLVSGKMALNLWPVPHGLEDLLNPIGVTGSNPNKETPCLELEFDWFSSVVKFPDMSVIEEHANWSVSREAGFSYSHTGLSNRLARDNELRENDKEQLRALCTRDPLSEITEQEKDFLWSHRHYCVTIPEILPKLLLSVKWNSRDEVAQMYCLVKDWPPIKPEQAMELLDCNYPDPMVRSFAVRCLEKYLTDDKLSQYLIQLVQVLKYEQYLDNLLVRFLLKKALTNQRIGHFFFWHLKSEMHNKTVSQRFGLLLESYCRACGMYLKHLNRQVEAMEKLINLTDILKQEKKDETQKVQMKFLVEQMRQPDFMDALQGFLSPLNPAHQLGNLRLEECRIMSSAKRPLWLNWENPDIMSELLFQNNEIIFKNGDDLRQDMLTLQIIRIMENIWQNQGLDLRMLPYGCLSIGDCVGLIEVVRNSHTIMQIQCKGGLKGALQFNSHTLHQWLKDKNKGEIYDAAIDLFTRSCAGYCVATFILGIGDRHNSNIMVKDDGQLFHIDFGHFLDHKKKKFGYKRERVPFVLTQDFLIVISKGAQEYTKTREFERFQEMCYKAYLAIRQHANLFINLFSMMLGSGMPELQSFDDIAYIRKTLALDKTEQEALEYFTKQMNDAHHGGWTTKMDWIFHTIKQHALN
# Sequence of PI3-Kα (P26450 whole entry partner, the tested form may be a part): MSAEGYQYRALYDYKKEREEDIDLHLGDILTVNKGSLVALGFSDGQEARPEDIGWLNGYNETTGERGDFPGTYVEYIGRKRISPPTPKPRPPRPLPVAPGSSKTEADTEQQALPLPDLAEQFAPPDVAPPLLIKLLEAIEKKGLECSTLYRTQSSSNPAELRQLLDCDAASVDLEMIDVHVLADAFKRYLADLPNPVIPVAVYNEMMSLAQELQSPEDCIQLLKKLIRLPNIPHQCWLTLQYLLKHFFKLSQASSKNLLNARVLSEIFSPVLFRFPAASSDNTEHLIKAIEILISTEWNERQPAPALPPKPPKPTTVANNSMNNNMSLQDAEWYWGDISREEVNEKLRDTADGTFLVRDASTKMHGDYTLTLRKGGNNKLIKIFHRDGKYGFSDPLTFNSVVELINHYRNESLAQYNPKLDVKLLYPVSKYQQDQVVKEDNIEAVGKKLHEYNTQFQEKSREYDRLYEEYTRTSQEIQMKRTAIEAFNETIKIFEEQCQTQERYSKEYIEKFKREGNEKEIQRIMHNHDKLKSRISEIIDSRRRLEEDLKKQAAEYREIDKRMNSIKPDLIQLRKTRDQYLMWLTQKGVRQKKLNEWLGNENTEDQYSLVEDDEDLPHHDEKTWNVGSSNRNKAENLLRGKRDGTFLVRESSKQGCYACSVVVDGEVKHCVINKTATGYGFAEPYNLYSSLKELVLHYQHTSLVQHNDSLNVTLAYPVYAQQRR
SMILES,pIC50 [1],pIC50 (PI3-Kα)
"Cc1nc(N)nc2c1cc(-c1cnn(C)c1)c(=O)n2[C@H]1CC[C@H](OCCO)CC1 [Compound 302, 2-amino-8-[trans-4-(2-hydroxyethoxy)cyclohexyl]-4-methyl-6-(1-methyl-1H-pyrazol-4-yl)pyrido[2,3-d]pyrimidin-7(8H)-one]",6.65,7.65
"COc1ccc(-c2cc3c(C)nc(N)nc3n([C@H]3C[C@H](OCCO)C3)c2=O)cn1 [Compound 314, 2-amino-8-(trans-3-(2-hydroxyethoxy)cyclobutyl]-6-(6-methoxypyridin-3-yl)-4-methylpyrido[2,3-d]pyrimidin-7(8H)-one]",7.29,7.99
"COc1ncc(-c2cc3c(C)nc(N)nc3n([C@H]3C[C@H](OCCO)C3)c2=O)cc1F [Compound 315, 2-amino-6-(5-fluoro-6-methoxypyridin-3-yl)-8-[trans-3-(2-hydroxyethoxy)cyclobutyl]-4-methylpyrido[2,3-d]pyrimidin-7(8H)-one]",7.84,8.51
"COc1ncc(-c2cc3c(C)nc(N)nc3n([C@H]3C[C@H](OCCO)C3)c2=O)cn1 [Compound 316, 2-amino-8-[trans-3-(2-hydroxyethoxy)cyclobutyl]-6-(2-methoxypyrimidin-5-yl)-4-methylpyrido[2,3-d]pyrimidin-7(8H)-one]",7.03,8.18
"COc1ccc(-c2cc3c(C)nc(N)nc3n([C@H]3C[C@H](OCC(N)=O)C3)c2=O)cn1 [Compound 317, 2-({trans-3-[2-amino-6-(6-methoxypyridin-3-yl)-4-methyl-7-oxopyrido[2,3-d]pyrimidin-8(7H)-yl]cyclobutyl}oxy)acetamide]",7.47,8.33
"COc1ncc(-c2cc3c(C)nc(N)nc3n([C@H]3C[C@H](OCC(N)=O)C3)c2=O)cc1F [Compound 318, 2-({trans-3-(2-amino-6-(5-fluoro-6-methoxypyridin-3-yl)-4-methyl-7-oxopyrido[2,3-yl]pyrimidin-8(7H)-yl)cyclobutyl}oxy)acetamide]",7.90,8.67
"COc1ncc(-c2cc3c(C)nc(N)nc3n([C@H]3C[C@H](OCC(N)=O)C3)c2=O)cn1 [Compound 319, 2-({trans-3-(2-amino-6-(2-methoxypyrimidin-5-yl)-4-methyl-7-oxopyrido[2,3-d]pyrimidin-8(7H)-yl]cydobutyl}oxy)acetamide]",6.96,8.23

# Reference: patent US8633204B2 (Pfizer Inc., priority 2006, dated 2014)
